Results on twelve compounds are retold here after ChEMBL document CHEMBL1201862, “PubChem BioAssay data set” (2004).

The structures appear in SMILES notation.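 Five concentrations, 48 hours, 96-well plates. Abbreviation: GI50, concentration required for 50% inhibition of growth.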 Active and inactive are the calls of the source. Cut-off read from the data, not from the text of the source: active = GI50 up to about 1.1 µM and inactive = higher.

Some test systems named below: 786-0; ACHN; CAKI-1; HCC 2998; HCT-15; HL-60; HOP-92; KM12; NCI-H226; NCI-H522; OVCAR-3; OVCAR-4; SF-268; SK-MEL-5; UO-31; NCI-H23; NCI/ADR-RES; PC-3; U-251.
Holding throughout (experiment): NCI-60 cell line screen, 48 h

Take `CCOC(=O)N1c2c(ccn2C)-c2ccn(C)c2N1C(=O)OCC`: the GI50 was 11.1 µM (inactive) with 786-0; 15.8 µM (inactive) in the assay with ACHN; 18.3 µM (inactive) in the assay on CAKI-1; 19.6 µM (inactive) with HCC 2998; 12.9 µM with HCT-15; 5.09 µM (inactive) in the assay with HL-60. The GI50 with HOP-92 is 20.6 µM (inactive); in the assay with KM12, 19.9 µM (inactive); in the assay with NCI-H226, 19.7 µM (inactive); in the assay with NCI-H522 it was 11.3 µM (inactive); with OVCAR-3, 14.1 µM (inactive); with OVCAR-4 it was > 10 µM (inactive). In addition, the GI50 in the assay on SF-268 was 19.1 µM (inactive); in the assay on SK-MEL-5, > 100 µM (inactive); in the assay on UO-31, 19.8 µM (inactive).

For `COC(=O)c1ccccc1C1=C([N+](=O)[O-])C(c2ccccc2)C(C#N)=C(N)O1` (stereo not drawn), the GI50 in the assay with 786-0 is 35.6 µM (inactive); in the assay with ACHN, 54.7 µM (inactive); in the assay with HCC 2998, > 100 µM (inactive); with HCT-15 it was 19.8 µM; with HL-60, 42.8 µM (inactive); in the assay on HOP-92, 50.1 µM (inactive). Moreover, the GI50 with KM12 is 56 µM (inactive); in the assay on NCI-H226 it was > 100 µM (inactive); with NCI-H23, 23.4 µM (inactive); in the assay with NCI-H522 it was 15 µM (inactive); in the assay with NCI/ADR-RES it was > 100 µM (inactive); with OVCAR-3, 24.7 µM (inactive). For the same compound, the GI50 with PC-3 was > 100 µM (inactive); in the assay on SF-268 it was 31.8 µM (inactive); with SK-MEL-5, > 100 µM (inactive); in the assay with U-251, > 100 µM (inactive).

In the case of `CCCCCCCCCN1CCC(=O)C(C(=O)OC)C1` (stereo not drawn), the GI50 was 16.9 µM (inactive) in the assay on 786-0; 8.93 µM (inactive) in the assay on ACHN; 15.6 µM (inactive) with CAKI-1; 19.5 µM (inactive) in the assay on HCC 2998; 13.4 µM in the assay with HCT-15; 1.53 µM (inactive) in the assay on HL-60. In addition, the GI50 in the assay with HOP-92 was 17.7 µM (inactive); with KM12, 3.08 µM (inactive); with NCI-H226, 12.9 µM (inactive); in the assay with NCI-H23 it was 2.96 µM (inactive); in the assay with NCI-H522 it was 8.73 µM (inactive); with NCI/ADR-RES it was 13.6 µM (inactive). Moreover, the GI50 in the assay with OVCAR-3 was 15.5 µM (inactive); in the assay with OVCAR-4 it was 2.29 µM (inactive); in the assay on SF-268 it was 16.3 µM (inactive); in the assay on SK-MEL-5, 14.2 µM (inactive); in the assay with UO-31 it was 10.3 µM (inactive).

As to `O=C(Nc1nc2ncn(CCNCCn3cnc4nc(NC(=O)c5ccccc5)[nH]c(=O)c43)c2c(=O)[nH]1)c1ccccc1`, the GI50 in the assay on 786-0 is > 100 µM (inactive); with ACHN it was > 100 µM (inactive); in the assay on CAKI-1, > 100 µM (inactive); in the assay with HCC 2998, > 100 µM (inactive); in the assay on HCT-15 it was over 100 µM; in the assay on HL-60, > 100 µM (inactive). The GI50 in the assay with HOP-92, with KM12, in the assay with NCI-H226, in the assay on NCI-H23, in the assay with NCI-H522 and in the assay on OVCAR-3 was > 100 µM (inactive) throughout. Besides, the GI50 in the assay with OVCAR-4, in the assay on SF-268, in the assay with SK-MEL-5, in the assay on U-251 and with UO-31 was > 100 µM (inactive) throughout.

`N#Cc1c(-c2ccco2)c2c(n(C3OC(CO)C(O)C(O)C3O)c1=S)CCCC2` (stereo not drawn): the GI50 is > 100 µM (inactive) in the assay on 786-0; > 100 µM (inactive) with ACHN; > 100 µM (inactive) with CAKI-1; > 100 µM (inactive) in the assay with HCC 2998; over 100 µM with HCT-15; > 100 µM (inactive) in the assay with HL-60. The GI50 in the assay with HOP-92, in the assay on KM12, in the assay with NCI-H226, in the assay on NCI-H23, in the assay with NCI-H522 and in the assay with NCI/ADR-RES was > 100 µM (inactive) each time. Also, the GI50 with OVCAR-3 was > 100 µM (inactive); in the assay on OVCAR-4 it was > 100 µM (inactive); in the assay with PC-3 it was > 100 µM (inactive); with SF-268, > 100 µM (inactive); with SK-MEL-5 it was 85.9 µM (inactive).

Regarding `Cc1ccc(-c2c(N)nc(NC#N)nc2CCC(=O)Nc2ccccc2[N+](=O)[O-])cc1`, the GI50 in the assay on 786-0 was > 100 µM (inactive); with ACHN, > 100 µM (inactive); with CAKI-1 it was > 100 µM (inactive); in the assay on HCC 2998, > 100 µM (inactive); with HCT-15 it was over 100 µM; with HL-60, > 100 µM (inactive). For the same compound, the GI50 was > 100 µM (inactive) in the assay with HOP-92; > 100 µM (inactive) in the assay on KM12; > 100 µM (inactive) in the assay with NCI-H226; > 100 µM (inactive) in the assay on NCI-H23; 85.1 µM (inactive) in the assay on NCI-H522; > 100 µM (inactive) in the assay on OVCAR-3. Also, the GI50 with OVCAR-4, in the assay on SF-268, with SK-MEL-5, in the assay with U-251 and with UO-31 was > 100 µM (inactive) in each case.

As to `CC1(C)[C@@H](Cn2ccc(=O)[nH]c2=O)CC[C@@]1(C)CO`, the GI50 in the assay with 786-0 is > 100 µM (inactive); with ACHN it was > 100 µM (inactive); in the assay on CAKI-1, > 100 µM (inactive); with HCC 2998 it was > 100 µM (inactive); with HCT-15, over 100 µM; with HOP-92, > 100 µM (inactive). The GI50 in the assay with KM12 is > 100 µM (inactive); with NCI-H226, > 100 µM (inactive); with NCI/ADR-RES, > 100 µM (inactive); in the assay on OVCAR-3 it was 81.5 µM (inactive); with OVCAR-4 it was > 100 µM (inactive); in the assay on PC-3, > 100 µM (inactive). Besides, the GI50 with SF-268, in the assay on SK-MEL-5, in the assay with U-251 and with UO-31 was > 100 µM (inactive) in each case.

Take `CCOC(=O)N[C@H]1CCc2cc(O)c(OC)c(OC)c2-c2ccc(SC)c(=O)cc21`: the GI50 was 0.0304 µM (active) in the assay on 786-0; 0.069 µM (active) with ACHN; 0.0266 µM (active) in the assay on CAKI-1; 0.113 µM (active) in the assay with HCC 2998; 0.0323 µM in the assay with HCT-15; < 0.01 µM (active) with HL-60. For the same compound, the GI50 in the assay with HOP-92 is 0.0103 µM (active); with KM12, 0.0154 µM (active); with NCI-H226, 0.266 µM (active); in the assay on NCI-H23, 0.0157 µM (active); in the assay with NCI-H522, 0.0177 µM (active); with OVCAR-3, 0.0123 µM (active). Also, the GI50 is 8 µM (inactive) in the assay on OVCAR-4; 0.0207 µM (active) in the assay with SF-268; 0.0127 µM (active) in the assay on SK-MEL-5; < 0.0162 µM (active) in the assay with U-251; 0.736 µM (active) in the assay with UO-31.

Consider `CCOC(=O)/C(=C/NC(=S)Nc1c(CC)cccc1C(C)(C)C)C(=O)c1ccccc1`, for which the GI50 in the assay on 786-0 was > 100 µM (inactive); in the assay on ACHN, > 100 µM (inactive); in the assay with CAKI-1, > 100 µM (inactive); in the assay on HCC 2998 it was > 100 µM (inactive); in the assay on HCT-15, over 100 µM; in the assay on HL-60, 59.3 µM (inactive). Also, the GI50 in the assay with KM12, in the assay with NCI-H226, with NCI-H23, in the assay on NCI-H522, with NCI/ADR-RES and in the assay with OVCAR-4 was > 100 µM (inactive) each time. Further, the GI50 is > 100 µM (inactive) in the assay on PC-3; > 100 µM (inactive) in the assay on SF-268; > 100 µM (inactive) with SK-MEL-5; > 100 µM (inactive) in the assay with U-251; 14.7 µM (inactive) in the assay on UO-31.

On to `FC(F)(F)c1ccccc1C1SCc2nc3ccccc3n21` (stereo not drawn), for which the GI50 with 786-0 was > 100 µM (inactive); in the assay on ACHN it was 40.6 µM (inactive); in the assay on CAKI-1, 32.6 µM (inactive); with HCC 2998, > 100 µM (inactive); in the assay on HL-60, 10.2 µM (inactive); with HOP-92 it was 4.67 µM (inactive). The GI50 with KM12 is 70.8 µM (inactive); in the assay on NCI-H226, 39.4 µM (inactive); in the assay with NCI-H23, 34 µM (inactive); in the assay on NCI-H522 it was 18.3 µM (inactive); in the assay with OVCAR-3, 40.1 µM (inactive); in the assay on SF-268, 61.9 µM (inactive). Also, the results for the GI50 in the assay on SK-MEL-5, in the assay on U-251 and in the assay with UO-31 were > 10 µM (inactive), 88.5 µM (inactive) and 49.7 µM (inactive), respectively.

With `CN1CCN(CCSC2Cc3cc(Cl)ccc3Sc3ccccc32)CC1` (stereo not drawn), the GI50 is 4.55 µM (inactive) in the assay with 786-0; 8.36 µM (inactive) in the assay on ACHN; 6.67 µM (inactive) with CAKI-1; 4.18 µM (inactive) with HCC 2998; 4.59 µM in the assay on HCT-15; 1.73 µM (inactive) in the assay on HL-60. Further, the GI50 is 4.5 µM (inactive) in the assay with HOP-92; 3.46 µM (inactive) with KM12; 16.9 µM (inactive) with NCI-H226; 7.89 µM (inactive) with NCI-H23; 5.93 µM (inactive) in the assay on NCI-H522; 8.2 µM (inactive) in the assay with OVCAR-3. The GI50 in the assay with OVCAR-4 is 6.81 µM (inactive); in the assay with SF-268, 8.47 µM (inactive); in the assay with SK-MEL-5, 3.26 µM (inactive); in the assay on U-251 it was 5.4 µM (inactive); with UO-31, 8.11 µM (inactive).

As to `N=c1[nH]cnc2c1nnn2C1C=CC(COS(N)(=O)=O)C1` (stereo not drawn), the GI50 in the assay on 786-0 is 2.19 µM (inactive); in the assay on ACHN it was 4.65 µM (inactive); with CAKI-1, 1.25 µM (inactive); with HCC 2998, 6.53 µM (inactive); in the assay with HCT-15, 6.5 µM; with HL-60 it was 3.42 µM (inactive). Moreover, the GI50 in the assay with KM12 was 9.68 µM (inactive); in the assay on NCI-H226, 4.43 µM (inactive); in the assay with NCI-H23, 1.95 µM (inactive); with NCI/ADR-RES it was 5.2 µM (inactive); with OVCAR-3 it was 10.7 µM (inactive); with OVCAR-4 it was 6.84 µM (inactive). Further, the GI50 was 3.93 µM (inactive) with PC-3; 10.7 µM (inactive) in the assay with SF-268; 3.13 µM (inactive) in the assay with SK-MEL-5; 4.15 µM (inactive) in the assay with U-251; 5.62 µM (inactive) in the assay with UO-31.
